Results reported in PubChem BioAssay AID1996.
In brackets after ≈: the same amount, converted by molar mass.

conditions: buffer; pH 7.4; 200.0 µM

SMILES	solubility kinetic
O=C(O)CSc1ncccn1	> 25.5 µg/mL
Nc1cccnc1Sc1ccccc1	28 µg/mL (≈ 138 µM)
O=C(COC(=O)c1ccco1)NC1CCCC1	28.1 µg/mL (≈ 118 µM)
Cc1ccnc(SCc2cn3c(C)cc(C)nc3n2)n1	> 42.8 µg/mL
COC(=O)C1CCN(C(=O)COC(=O)/C=C/c2ccc(O)c(OC)c2)CC1	> 56.6 µg/mL
Cc1ccc(S(=O)(=O)N2CC(C(=O)O)Oc3ccccc32)cc1 (stereo unspecified)	> 50 µg/mL
Cc1sc2nc(COC(=O)c3ccc(O)cc3)[nH]c(=O)c2c1C	8 µg/mL (≈ 24.2 µM)
COC(=O)c1cc(OC)c(OC)cc1NC(=O)CSCc1c(C)noc1C	15.6 µg/mL (≈ 39.5 µM)
O=C(NCCO)C(=O)c1c(-c2ccccc2)cc2ccccn12	38.2 µg/mL (≈ 124 µM)
O=C(NCc1ccccc1)C1CC(=O)N(C2CCCCCC2)C1 (stereo unspecified)	> 47.2 µg/mL
CC1SC(c2ccc(F)cc2)N(CCc2ccccc2)C1=O (stereo unspecified)	21.8 µg/mL (≈ 69.1 µM)
CCc1c(C(=O)Nc2ccccc2C(N)=O)csc1C	3.6 µg/mL (≈ 12.5 µM)
O=C(N1CCOCC1)N1CCc2ccccc21	34.8 µg/mL (≈ 150 µM)
Cc1ccc2nc3c(nc2c1C)C(O)=C3O	24.7 µg/mL (≈ 115 µM)
CN1CCN(C(=S)NC(=O)c2cccc([N+](=O)[O-])c2)CC1	> 46.3 µg/mL
CCOC(=O)c1c(N)sc2c1CCN(CCc1ccccc1)C2	31.7 µg/mL (≈ 95.9 µM)
CCOC(=O)c1c(C)nc(C)c(C(=O)OCC)c1-c1cccc(N)c1	42.1 µg/mL (≈ 123 µM)
COc1ccc(OCC(=O)Nc2ccncc2)cc1	> 38.7 µg/mL
COc1ccc(NC(=O)CN2C(=O)NC3(CCCCC3C)C2=O)cc1S(=O)(=O)N1CCOCC1 (stereo unspecified)	> 74.2 µg/mL
COc1ccc(-c2cc(C3CC3)nc(N)c2C#N)cc1	1.7 µg/mL (≈ 6.41 µM)
Br.CC(C)(C)c1ccc(C2=CSC3=NCCN23)cc1	49.4 µg/mL
CC(C)c1ccc(OCC(=O)Nc2ccc3oc(=O)ccc3c2)cc1	< 0.7 µg/mL
CSc1nsc(SCC(=O)Nc2ccc(C(=O)O)cc2)n1	> 51.2 µg/mL
CCCOc1cccc(C(=O)NCCNC(=O)c2ccco2)c1	> 47.5 µg/mL
CC(=O)Nc1ccc(NC(=O)CCOc2cc(C)ccc2C)cc1	2 µg/mL (≈ 6.13 µM)

SMILES	solubility kinetic
CCc1cc2c(CN(C)Cc3ccccc3F)cc(=O)oc2cc1O	9.5 µg/mL (≈ 27.8 µM)
COc1ccc(Cl)cc1NC(=O)COC(=O)C1CC1	34.4 µg/mL (≈ 121 µM)
O=C(COC(=O)C1CCC(=O)N1)Nc1cccc([N+](=O)[O-])c1 (stereo unspecified)	> 46.1 µg/mL
O=C(Cn1cnc([N+](=O)[O-])c1)Nc1ccccc1C(F)(F)F	39 µg/mL (≈ 124 µM)
CCCCC(=O)Nc1ccc(NCc2ccc(C)s2)cc1	16 µg/mL (≈ 52.9 µM)
CCOC(=O)c1ccccc1NC(=O)c1cc2ccccc2o1	< 0.7 µg/mL
O=C(CNS(=O)(=O)c1ccc(F)c(Cl)c1)N1CCCC1	44.1 µg/mL (≈ 137 µM)
COC(=O)Cc1c(O)ccn(CCc2ccc(OC)c(OC)c2)c1=O	> 52.1 µg/mL
N#Cc1ccccc1OCC(=O)OCC(=O)NC1CC1	> 41.1 µg/mL
CC(=O)c1cn(Cc2ccccc2F)c2ccccc12	< 0.6 µg/mL
O=C(c1ccccc1)N1CCCC(C(=O)N2CCN(c3ccccc3)CC2)C1 (stereo unspecified)	46.8 µg/mL (≈ 124 µM)
CC(C[N+](C)(C)C)OC(N)=O.[Cl-] (stereo unspecified)	> 29.5 µg/mL
COC(c1ccccc1)c1nc2ccccc2[nH]c1=O (stereo unspecified)	> 39.9 µg/mL
O=C(COC(=O)c1ccccn1)c1ccc([N+](=O)[O-])cc1	39.9 µg/mL (≈ 139 µM)
CN(C)CCNC(=O)c1scc2c1CCCC2.Cl	> 43.3 µg/mL
CC(C)CC(=O)NC(C)C(c1cccs1)N1CCOCC1 (stereo unspecified)	45.4 µg/mL (≈ 146 µM)
O=C(NCC(c1ccco1)N1CCOCC1)c1ccccc1 (stereo unspecified)	> 45.1 µg/mL
Cl.OCCN1CCN(c2nc3ccccc3nc2-c2ccccc2)CC1	> 55.6 µg/mL
COc1ccccc1OCC(=O)Nc1ccc2c(c1)OCCO2	39.1 µg/mL (≈ 124 µM)
CCn1c(=O)c([N+](=O)[O-])c(NCC2CCCO2)c2ccccc21 (stereo unspecified)	47.5 µg/mL (≈ 150 µM)
Cc1cccc(NC(=O)N2C[C@H]3C[C@@H](C2)c2cccc(=O)n2C3)c1	> 48.5 µg/mL
Cc1ccc(-c2nc(NCCCO)c3ccccc3n2)cc1	37.3 µg/mL (≈ 127 µM)
Cc1ccc(-c2c[n+]3c(n2-c2ccccc2)CCC3)cc1.[Br-]	> 53.3 µg/mL
CC(C)NC(=O)C(=O)Nc1cc2c3c(c1)CCC(=O)N3CCC2	> 47.3 µg/mL
CN(CC(=O)Nc1ccc(F)c(F)c1F)C(=O)c1ccc(N2CCCC2=O)cc1	53.4 µg/mL (≈ 132 µM)

SMILES	solubility kinetic
C=CCN(CC=C)C(=O)C[n+]1ccc(C(N)=O)cc1.[Cl-]	> 44.4 µg/mL
Cc1cccc(N2N=C(C(=O)O)CCC2=O)c1	> 34.8 µg/mL
NC(=O)CSc1nnc(NC(=O)c2ccc(Br)o2)s1	> 54.5 µg/mL
CC(C)OP(=O)(OC(C)C)C(Nc1ccccc1)c1cccnc1 (stereo unspecified)	46.5 µg/mL (≈ 133 µM)
Cc1nc2ccccc2c2c1C(=O)NC2=O	> 31.8 µg/mL
COc1cccc(/C=C(\CC(=O)O)c2nc3ccccc3s2)c1	41.1 µg/mL (≈ 126 µM)
CC(Sc1nc(N)cc(N)n1)C(=O)NCC1CCCO1 (stereo unspecified)	> 44.6 µg/mL
COc1cc(/C=C/C(=O)OCC(=O)Nc2cc(S(=O)(=O)N3CCCC3)ccc2Cl)cc(OC)c1OC	4.3 µg/mL (≈ 7.98 µM)
CCSC1=NN2CCS(=O)(=O)N=C2S1	> 37.7 µg/mL
CC(C)c1ccc(OCC(=O)NC(C)c2ccccc2)cc1 (stereo unspecified)	16.5 µg/mL (≈ 55.5 µM)
COc1ccc2oc(C(=O)Nc3ccccn3)c(C)c2c1	22 µg/mL (≈ 77.9 µM)
CN(C)C(=O)c1cc(C(=O)c2ccccc2Br)c[nH]1	44.4 µg/mL (≈ 138 µM)
CC(=O)c1c(C)[nH]c(C(=O)OCc2cccc(C)c2)c1C	4.2 µg/mL (≈ 14.7 µM)
C=CCOc1cccc(/C=C/c2nc3ccccc3c(=O)[nH]2)c1	> 45.7 µg/mL
O=C(NCCN1CCCCC1)Nc1ccccc1F	> 39.8 µg/mL
N#Cc1ccc(C(=O)NC(=S)N2CCN(C=O)CC2)cc1	39 µg/mL (≈ 129 µM)
O=C(NC(=S)NC1CCCCC1)c1ccccc1[N+](=O)[O-]	3 µg/mL (≈ 9.76 µM)
Cc1ccc(S(=O)(=O)N(C)CC(=O)NCCCn2ccnc2)cc1	48.6 µg/mL (≈ 139 µM)
Cn1c(/C=C/c2ccc(Br)cc2)nc2ccccc2c1=O	< 0.4 µg/mL
CCCN1CCC(NC(=O)Cc2ccccc2OC)CC1	43.5 µg/mL (≈ 150 µM)
COc1cccc(N2CCN(Cc3ccco3)CC2)c1	30.8 µg/mL (≈ 113 µM)
CCCCc1nnc(NC(=O)C(=O)OCC)s1	> 38.6 µg/mL
O=C(c1ccc(Cl)cc1)N(c1ccccn1)C1CCCCC1	41.5 µg/mL (≈ 132 µM)
C=CCc1c(C)nc(N2CCSCC2)[nH]c1=O	32 µg/mL (≈ 127 µM)
Cc1ccc(/C=C/C(=O)NC2CCS(=O)(=O)C2)cc1 (stereo unspecified)	40.2 µg/mL (≈ 144 µM)

SMILES	solubility kinetic
Cc1cccc(C(=O)Nc2ccc(C(=O)c3ccccc3)cc2)c1	< 0.7 µg/mL
Cc1ncn2cc(-c3ccc(Cl)cc3Cl)[nH]c(=O)c12	2.8 µg/mL (≈ 9.52 µM)
Cc1[nH]c(=S)c(C#N)c(C)c1CCC#N	> 32.6 µg/mL
CCN(CC)c1nc2ccccc2[nH]c1=O	10.7 µg/mL (≈ 49.2 µM)
O=C(NC(c1ccccc1)c1ccccn1)c1cccc([N+](=O)[O-])c1 (stereo unspecified)	38.3 µg/mL (≈ 115 µM)
O=C(Nc1ccc(F)cc1)c1cc2ccccc2o1	1.9 µg/mL (≈ 7.44 µM)
COc1ccc(-c2ccc(CCC(=O)O)n2NC(=O)c2ccc(O)cc2)cc1	> 57.1 µg/mL
CN(C)c1ncc(S(=O)(=O)c2ccccc2)c(=O)[nH]1	> 41.9 µg/mL
Cc1nn(C)c(=O)n1-c1ccccc1	> 28.4 µg/mL
O=C(Nc1ccc2nccnc2c1)Nc1ccccc1Cl	1 µg/mL (≈ 3.35 µM)
Nc1ccc(C2(c3ccc(N)cc3)CCCCC2)cc1	36 µg/mL (≈ 135 µM)
Cc1cc(NS(=O)(=O)c2ccc(NC(=O)/C=C/c3ccccc3)cc2)nc(C)n1	> 61.3 µg/mL
O=C(NC1CCCC1)c1ccc(Cl)s1	30.7 µg/mL (≈ 134 µM)
COCCCN1C(=O)CS/C1=N\S(=O)(=O)c1ccccc1	> 49.3 µg/mL
CSc1ccccc1C(=O)Nc1cc([N+](=O)[O-])ccc1C	2 µg/mL (≈ 6.61 µM)
O=C(Nc1ccccc1N1CCOCC1)C1CCCO1 (stereo unspecified)	> 41.5 µg/mL
Nc1ccccc1SC1CC(=O)N(c2ccc3c(c2)OCCO3)C1=O (stereo unspecified)	0.9 µg/mL (≈ 2.53 µM)
CN(Cc1nc2ccccc2n1C)C(=O)c1ccco1	39.9 µg/mL (≈ 148 µM)
COC(=O)C1=Nc2ccccc2/C1=C\c1c(O)n(C)c(=O)n(C)c1=O	> 51.2 µg/mL
O=S(=O)(Nc1ncccn1)c1cc(Cl)ccc1Cl	> 45.6 µg/mL
O=C(COC(=O)CNC(=O)C1CCCCC1)NCc1ccccc1	> 49.9 µg/mL
CCOc1ccc2[nH]c3c(NCCCOC)ncnc3c2c1	36.4 µg/mL (≈ 121 µM)
O=C(COC(=O)CCC(=O)c1ccc(F)cc1)NCCc1ccccc1	49.1 µg/mL (≈ 137 µM)
CN(C)/C=C/C(=O)c1ccc(Cl)s1	> 32.4 µg/mL
O=C(O)CCCc1ccc(N(CCCl)CCCl)cc1	> 45.6 µg/mL

SMILES	solubility kinetic
COc1cccc(C=Nc2ccc(N3CCOCC3)cc2)c1O	33.7 µg/mL (≈ 108 µM)
C=CCSc1nc(N)c2c3c(sc2n1)CN(C)CC3	43.5 µg/mL (≈ 149 µM)
CCC1CCC2(CC1)NC(=O)N(CC(=O)NCc1ccc(Cl)cc1)C2=O (stereo unspecified)	3.7 µg/mL (≈ 9.79 µM)
Cc1ccnc(NC(=O)CCc2c[nH]c3ccccc23)c1	> 41.9 µg/mL
COc1ccc(NS(=O)(=O)c2cc(NC(=O)c3ccccn3)ccc2OC)cc1Br	3.4 µg/mL (≈ 6.91 µM)
Cc1ccccc1-c1nc(S(=O)(=O)c2ccccc2)c(N2CCCC2)o1	10.1 µg/mL (≈ 27.4 µM)
Cc1c(C(=O)N2CCNCC2)oc2ccccc12.Cl	40.9 µg/mL
Cc1cc(=O)[nH]c(SCC(=O)Nc2nonc2C)n1	> 42.2 µg/mL
CCCCCCn1c(=O)[nH]c2c(c1=O)CCC2	> 35.4 µg/mL
Cc1ccc(SCCNCc2ccco2)cc1.Cl	27.9 µg/mL
COc1ccc2nc(SCC(=O)NCCc3ccccc3)[nH]c2c1	> 51.2 µg/mL
Cc1ccc(OCCCCCN2CCOCC2)c(Cl)c1	26.3 µg/mL (≈ 88.3 µM)
COc1ccc(NC(=O)c2ccc(S(=O)(=O)N3CCCCC3)cc2)cc1OC	5.5 µg/mL (≈ 13.6 µM)
NS(=O)(=O)c1ccc(NS(=O)(=O)c2ccc(Br)cc2)cc1	> 58.7 µg/mL
CCc1sc(C(=O)NC(C)C2CCCO2)cc1Br (stereo unspecified)	49.5 µg/mL (≈ 149 µM)
O=C(/C=C/c1ccc(Cl)cc1)NC1CCS(=O)(=O)C1 (stereo unspecified)	> 45 µg/mL
CCC(=O)Nc1cccc(-c2nc3ccc(C)cc3o2)c1	1.6 µg/mL (≈ 5.71 µM)
COc1ccc(N(CC(=O)NC2CCCCC2)S(=O)(=O)c2cccs2)cc1	1.2 µg/mL (≈ 2.94 µM)
COc1ccc(CC(=O)OCC(=O)NC2CC2)cc1	> 39.5 µg/mL
COc1cc(SC)ccc1C(=O)NCCN1CCOCC1	> 46.6 µg/mL
Cc1cnc(C(=O)OC(C)C(=O)NCc2ccccc2)cn1 (stereo unspecified)	> 44.9 µg/mL
